According to the NIST ThermoML archive (doi:10.1016/j.fluid.2010.09.021):
± gives the expanded uncertainty stated by the source.

Test: excess molar enthalpy (molar enthalpy of mixing); xn = mol fraction of the nth substance listed
Details: Liquid, Flow calorimetry

SMILES: CCCCCC[N+]1(C)CCCC1.O=S(=O)([N-]S(=O)(=O)C(F)(F)F)C(F)(F)F + Cc1ccccc1
- excess molar enthalpy (413.15 K, 2377 kPa, x2 = 0.0759): -0.0366 ± 0.00153 kcal/mol
- excess molar enthalpy (413.15 K, 2377 kPa, x2 = 0.1443): -0.0704 ± 0.00287 kcal/mol
- excess molar enthalpy (413.15 K, 2377 kPa, x2 = 0.2063): -0.0967 ± 0.00406 kcal/mol
- excess molar enthalpy (413.15 K, 2377 kPa, x2 = 0.2626): -0.121 ± 0.00502 kcal/mol
- excess molar enthalpy (413.15 K, 2377 kPa, x2 = 0.314): -0.145 ± 0.00598 kcal/mol
- excess molar enthalpy (413.15 K, 2377 kPa, x2 = 0.3612): -0.165 ± 0.00669 kcal/mol
- excess molar enthalpy (413.15 K, 2377 kPa, x2 = 0.4448): -0.189 ± 0.00765 kcal/mol
- excess molar enthalpy (413.15 K, 2377 kPa, x2 = 0.5165): -0.199 ± 0.00813 kcal/mol
- excess molar enthalpy (413.15 K, 2377 kPa, x2 = 0.5787): -0.203 ± 0.00837 kcal/mol
- excess molar enthalpy (413.15 K, 2377 kPa, x2 = 0.6812): -0.188 ± 0.00765 kcal/mol
- excess molar enthalpy (413.15 K, 2377 kPa, x2 = 0.7622): -0.151 ± 0.00621 kcal/mol
- excess molar enthalpy (413.15 K, 2377 kPa, x2 = 0.8278): -0.112 ± 0.00454 kcal/mol
- excess molar enthalpy (413.15 K, 2377 kPa, x2 = 0.9058): -0.0643 ± 0.00263 kcal/mol
- excess molar enthalpy (413.15 K, 2377 kPa, x2 = 0.9665): -0.0259 ± 0.0011 kcal/mol

SMILES: CCCC[N+]1(C)CCCC1.O=S(=O)([N-]S(=O)(=O)C(F)(F)F)C(F)(F)F + Cc1ccccc1
- excess molar enthalpy (413.15 K, 2342 kPa, x2 = 0.0687): -0.029 ± 0.00122 kcal/mol
- excess molar enthalpy (413.15 K, 2342 kPa, x2 = 0.1315): -0.0605 ± 0.00239 kcal/mol
- excess molar enthalpy (413.15 K, 2342 kPa, x2 = 0.1892): -0.0872 ± 0.00359 kcal/mol
- excess molar enthalpy (413.15 K, 2342 kPa, x2 = 0.2423): -0.103 ± 0.0043 kcal/mol
- excess molar enthalpy (413.15 K, 2342 kPa, x2 = 0.2914): -0.119 ± 0.00478 kcal/mol
- excess molar enthalpy (413.15 K, 2342 kPa, x2 = 0.3368): -0.136 ± 0.0055 kcal/mol
- excess molar enthalpy (413.15 K, 2342 kPa, x2 = 0.4184): -0.16 ± 0.00645 kcal/mol
- excess molar enthalpy (413.15 K, 2342 kPa, x2 = 0.4896): -0.168 ± 0.00693 kcal/mol
- excess molar enthalpy (413.15 K, 2342 kPa, x2 = 0.5523): -0.166 ± 0.00669 kcal/mol
- excess molar enthalpy (413.15 K, 2342 kPa, x2 = 0.6574): -0.153 ± 0.00621 kcal/mol
- excess molar enthalpy (413.15 K, 2342 kPa, x2 = 0.7421): -0.123 ± 0.00502 kcal/mol
- excess molar enthalpy (413.15 K, 2342 kPa, x2 = 0.8119): -0.094 ± 0.00382 kcal/mol
- excess molar enthalpy (413.15 K, 2342 kPa, x2 = 0.8962): -0.0543 ± 0.00225 kcal/mol
- excess molar enthalpy (413.15 K, 2342 kPa, x2 = 0.9628): -0.0181 ± 0.000789 kcal/mol

SMILES: CCCCCC[N+]1(C)CCCC1.O=S(=O)([N-]S(=O)(=O)C(F)(F)F)C(F)(F)F + c1ccccc1
- excess molar enthalpy (393.15 K, 2342 kPa, x2 = 0.0899): -0.0422 ± 0.00174 kcal/mol
- excess molar enthalpy (393.15 K, 2342 kPa, x2 = 0.1686): -0.0867 ± 0.00359 kcal/mol
- excess molar enthalpy (393.15 K, 2342 kPa, x2 = 0.238): -0.121 ± 0.00502 kcal/mol
- excess molar enthalpy (393.15 K, 2342 kPa, x2 = 0.2998): -0.145 ± 0.00598 kcal/mol
- excess molar enthalpy (393.15 K, 2342 kPa, x2 = 0.355): -0.177 ± 0.00717 kcal/mol
- excess molar enthalpy (393.15 K, 2342 kPa, x2 = 0.4047): -0.199 ± 0.00813 kcal/mol
- excess molar enthalpy (393.15 K, 2342 kPa, x2 = 0.4906): -0.227 ± 0.00932 kcal/mol
- excess molar enthalpy (393.15 K, 2342 kPa, x2 = 0.5622): -0.252 ± 0.0103 kcal/mol
- excess molar enthalpy (393.15 K, 2342 kPa, x2 = 0.6228): -0.263 ± 0.0108 kcal/mol
- excess molar enthalpy (393.15 K, 2342 kPa, x2 = 0.7198): -0.236 ± 0.00956 kcal/mol
- excess molar enthalpy (393.15 K, 2342 kPa, x2 = 0.7939): -0.19 ± 0.00789 kcal/mol
- excess molar enthalpy (393.15 K, 2342 kPa, x2 = 0.8525): -0.141 ± 0.00574 kcal/mol
- excess molar enthalpy (393.15 K, 2342 kPa, x2 = 0.9204): -0.0734 ± 0.00311 kcal/mol
- excess molar enthalpy (393.15 K, 2342 kPa, x2 = 0.972): -0.0246 ± 0.00105 kcal/mol

SMILES: CCCC[N+]1(C)CCCC1.O=S(=O)([N-]S(=O)(=O)C(F)(F)F)C(F)(F)F + c1ccccc1
- excess molar enthalpy (363.15 K, 2239 kPa, x2 = 0.0815): -0.0309 ± 0.00129 kcal/mol
- excess molar enthalpy (363.15 K, 2239 kPa, x2 = 0.1541): -0.0622 ± 0.00263 kcal/mol
- excess molar enthalpy (363.15 K, 2239 kPa, x2 = 0.2191): -0.0851 ± 0.00359 kcal/mol
- excess molar enthalpy (363.15 K, 2239 kPa, x2 = 0.2777): -0.11 ± 0.00454 kcal/mol
- excess molar enthalpy (363.15 K, 2239 kPa, x2 = 0.3308): -0.136 ± 0.0055 kcal/mol
- excess molar enthalpy (363.15 K, 2239 kPa, x2 = 0.3792): -0.154 ± 0.00621 kcal/mol
- excess molar enthalpy (363.15 K, 2239 kPa, x2 = 0.4639): -0.181 ± 0.00741 kcal/mol
- excess molar enthalpy (363.15 K, 2239 kPa, x2 = 0.5357): -0.203 ± 0.00837 kcal/mol
- excess molar enthalpy (363.15 K, 2239 kPa, x2 = 0.7758): -0.175 ± 0.00717 kcal/mol
- excess molar enthalpy (363.15 K, 2239 kPa, x2 = 0.8385): -0.125 ± 0.00502 kcal/mol
- excess molar enthalpy (363.15 K, 2239 kPa, x2 = 0.9121): -0.07 ± 0.00287 kcal/mol
- excess molar enthalpy (363.15 K, 2239 kPa, x2 = 0.9689): -0.0232 ± 0.00098 kcal/mol
